“Also recorded” adds a separate entry of the source. Bridge positions count the residues as written; N and C are the ends. Ends that are not written are not given here.
B1: OP-1 (osteogenic protein-1), mature human OP-1 (ligand)
chain: CKKHELYVSFRDLGWQDWIIAPEGYAAYYCEGECAFPLNSYMNATNHAIVQTLVHFINPETVPKPCCAPTQLNAISVLYFDDSSNVILKKYRNMVVRACGCH
modifications: radio-iodinated (^125I) when used as tracer; unlabeled when used as competitor or in the bioassay
B2: Peptide F1-1 (peptide)
peptide: CELYVSFRDLGWQDWIIAPEGYAAYC
modifications: disulfide 1-26

Key:
ROS cells = experiment: ROS cell based alkaline phosphatase bioassay; set-up: species or system rat; conditions: for effect on basal cell responsiveness (alkaline phosphatase activity): no OP-1; for effect on OP-1 induced cell responsiveness (agonist/antagonist behaviour): peptide together with OP-1; for IC50: peptide together with OP-1 (1.33 nM), read-out: peptide concentration giving 50% inhibition of cellular responsiveness to OP-1
Description: In a first series of experiments, increasing concentrations of peptides F2-2 (FIG. 9A), F2-3 (FIG. 9B), Hn-2 (FIG. 9C) and Hc-2 (FIG. 9D) were added to ROS cells either alone (open bars) or in combination with 40 ng/ml soluble OP-1 (filled bars) and their effect on alkaline phosphatase activity measured. Soluble OP-1 is the form of OP-1 in which the pro-domain is still attached to the mature portion of OP-1 (see WO 94/03600). A basal alkaline phosphatase activity is shown by the line and represents the alkaline phosphatase activity of cells incubated in the absence of both soluble OP-1 and peptide.
(§1) Assay of peptides: The receptor-binding activities of OP-1 synthetic peptides were determined by a radio-ligand receptor assay using ^125I-labeled OP-1 as ligand, and an OP-1 receptor-enriched plasma membrane fraction of ROS cells. The assay is based on competition between radiolabeled OP-1 and unlabeled OP-1 or peptide for binding to membrane-bound receptor. A well characterized ROS cell based in vitro bio-assay was used to examine the effects of OP-1 peptides on basal as well as OP-1 induced cellular alkaline phosphatase activity.
i. ROS Cell Based Alkaline Phosphatase Assay: OP-1 synthetic peptides that bind OP-1 receptors are further analyzed by in vitro bioassay. This allows defining the role of OP-1 peptides at the receptor-binding site. Some of the OP-1 peptides that effectively interact with receptors could inhibit OP-1 induced target cell responsiveness, thereby acting as functional antagonists. Alternatively, they may mimic OP-1 functions inducing alkaline phosphatase activity in ROS cells. Creative BioMolecules has developed and fully validated ROS cell in vitro assay for OP-1. An assay procedure as described earlier is essentially followed to determine the biological activities of OP-1 peptides. In a typical experiment, rat Osteosarcoma (17/2.8) cells are plated in 96 well plates (3.0×10^4 cells/well) and incubated overnight at 37° C. in 5-6% CO2 incubator. Next day, the plates are examined to make sure that cells are healthy & confluent. Cells are treated with increasing concentrations of OP-1 standard (1-10,000 ng/ml) or OP-1 synthetic peptides (0.02-200 μM) alone or with OP-1 standard prepared in medium containing 1% FBS and incubated for 2 days at 37° C. in 5-6% CO2 incubator. The cellular content of alkaline phosphatase activity is determined by the method of Reddi and Huggins. Enzyme estimations are routinely carried out in 96 well plates. Following removal of culture medium, cells are washed with pre-warmed PBS (150 μl) and further incubated in 100 ul of pre-warmed 1% Triton X-100 for 30 minutes at 37 C. Plates are centrifuged for 10 minutes at full speed, and recovered samples (each 15 μl) are assayed for enzyme activity by adding 90 ul p-nitrophenyl phosphate (Sigma) as a substrate in 0.05 M glycine-NaOH buffer, pH 9.3 and incubating for 20 minutes at 37° C. The reaction is stopped by adding 75 μl of 0.2 N NaOH/well and absorbance at 405/490 nm is measured on a Dynatech MR 700 plate reader. Results are expressed as concentration of peptide inhibitor (with antagonist activity) required to give 50% inhibition of maximum response to OP-1 standard. On the other hand, the activities of peptides that stimulate cell responsiveness (with agonist activity) are expressed relative to OP-1 standard. FIG. 23 illustrates the dose-related effects of OP-1 preparations on stimulation of alkaline phosphatase activity as determined in ROS cell based in vitro assay.

[1] = tested on: OP-1 receptor-enriched plasma membrane fraction of ROS cells; experiment: Radioligand receptor assay: displacement of 125I-labeled OP-1 from ROS cell plasma membranes; format: binding, rat; conditions: for ability to displace 125I-labeled soluble OP-1 from ROS cell membranes: Example 2, FIGS. 10A and 10B; for effect on binding of 125I-labeled OP-1 to the receptor: Example 3
Description: In a second series of experiments, the ability of unlabeled soluble OP-1 and unlabeled peptides F1-2, F2-2, F2-3, H-n2 and H-c2 to displace ^125I labeled soluble OP-1 from ROS cell membranes was measured. The activities of peptides F2-2 and F2-3 relative to soluble OP-1 are shown in FIG. 10A, and the activities of peptides Fi-2, H-n2 and H-c2 relative to soluble OP-1 are shown in FIG. 10B. OP-1 receptor-enriched plasma membranes of ROS cells were incubated for 20 hrs at 4° C. with ^125I-labeled soluble OP-1 and unlabeled peptide. Receptor bound material was separated from unbound material by centrifugation at 39,500×g. The resulting pellet was harvested and washed with 50 mM HEPES buffer, pH 7.4 containing 5 mM MgCl2 and 1 mM CaCl2 Radioactivity remaining in the pellet was determined by means of a gamma counter.
as §1
i. Radio-receptor Assay: The receptor-binding activities of various OP-1 synthetic peptides can be determined by an equilibrium displacement binding isotherm assay using ^125I-labeled OP-1 as ligand and OP-1 receptor-enriched plasma membrane fraction of ROS cells. Highly purified OP-1 can be radioiodinated to a specific activity of 70-78 μCi/ug by a modified procedure of lactoperoxidase method. The percent bindability of radioiodinated OP-1 to excess receptor is 30-37%. Plasma membranes enriched with OP-1 receptors from ROS cells can be isolated as is known in the art. […] In a typical assay, fixed amounts of ^125I-labeled sol. OP-1 (˜80,000 cpm) are incubated with fixed amount of receptor-enriched plasma membrane fraction in the presence (5 μg, for non-specific binding) or absence of excess unlabeled OP-1 (for total binding). Displacement curves are generated with increasing concentrations of OP-1 peptide (0.032-50 μM) or OP-1 standard preparation (5-2000 ng). The assay incubations are carried out in a reaction volume of 300 μl with shaking for 22 hrs. at 4° C. Separation of bound and free ^125I-labeled OP-1 is by centrifugation (39,500×g, 30 minutes). The supernatants are aspirated and pellets are washed before counting in a gamma counter (Packard Instr., Downers Grove, Ill.). The concentration of OP-1 peptide required to give 50% inhibition of total specific binding of ^125I-labeled OP-1 (ED50) is calculated from competitive data.

[2] = molecular target: OP-1 receptor of ROS cells (OP-1 receptor-enriched plasma membrane fraction of ROS cells) (rat); experiment: binding of ^125I-OP-1 to excess receptor (ROS cell plasma membranes)
[3] = molecular target: OP-1 receptor of ROS cells (OP-1 receptor-enriched plasma membrane fraction of ROS cells) (rat); experiment: equilibrium binding of ^125I-OP-1 to OP-1 receptor-enriched ROS cell plasma membranes
[4] = molecular target: OP-1 receptor of ROS cells (OP-1 receptor-enriched plasma membrane fraction of ROS cells) (rat)

Molecule | effect on basal cell responsiveness (alkaline phosphatase activity) (ROS cells; Example 3, peptide alone) | effect on OP-1 induced cell responsiveness (agonist/antagonist behaviour) (ROS cells; Example 3) | IC50 (ROS cells; Example 3) [µM] | ability to displace 125I-labeled soluble OP-1 from ROS cell membranes [1] | effect on binding of 125I-labeled OP-1 to the receptor [1] | other results
H-C2: SEQ ID No. 13; 7 residues (plus Cys) in the loop on the C-terminal end of the Heel helix (CCFINPETVCC; listed as Homo sapiens) | inhibiting the basal | antagonists | 5 | little or no ability to displace | interfered | overall judgement of activity (lead peptides) (ROS cells; Example 3 summary, antagonistic (H-C2) and modulating (F2-3) activity): highly active; peptide concentration at which the activity of soluble OP-1 is antagonized (ROS cells; with 40 ng/ml soluble OP-1, FIG. 9D): greater than 5 μM; effect on binding of 125I-labeled OP-1 to the receptor ([1]; peptide at 8 μM, FIG. 14): potentiated
H-N2: SEQ ID No. 12; 11 residues (plus Cys) in the loop on the N-terminal end of the Heel helix (CLNSYMNATNHAC; listed as Homo sapiens) | not effective | not effective |  | little or no ability to displace | failed to inhibit | effect on alkaline phosphatase activity (ROS cells; either alone or in combination with soluble OP-1, FIG. 9C): little or no effect
F1-1: SEQ ID No. 5; cyclized peptide covering the complete finger 1 region of OP-1 (CELYVSFRDLGWQDWIIAPEGYAAYC; cyclized; listed as Homo sapiens) |  | antagonists | 20 |  | interfered | peptide concentrations effective to inhibit basal cellular responsiveness (ROS cells; Example 3, peptide alone): 52 to 260 µM
H-1: SEQ ID No. 11; covers the whole Heel region, cyclized near the knot region (CAFPLNSYMNATNHAIVQTLVHFINPETVPKC; disulfide 1-32 (inferred); listed as Homo sapiens) | effective only at very high concentrations | weak antagonist; also recorded: antagonists |  |  | interfered | peptide concentrations required to inhibit the OP-1 induced cell response (ROS cells; Example 3, with OP-1): 44 to 220 µM
F1-2: SEQ ID No. 6; 15-residue finger 1 loop region peptide cyclized at the ends (CFRDLGWQDWIIAPC; cyclized; listed as Homo sapiens) | weakly inhibiting | relatively weak antagonist | 10 | little or no ability to displace | relatively weak activity | effect on OP-1 induced cell responsiveness (agonist/antagonist behaviour) (ROS cells; Example 3, listed as Fi-2): antagonists; peptide concentration required to inhibit binding of 125I-labeled OP-1 to the receptor ([1]; Example 3, FIG. 14): 179 µM; effect on binding of 125I-labeled OP-1 to the receptor ([1]; listed as Fi-2): interfered
F2-2: SEQ ID No. 17; 9 residues at the tip of finger 2 including 2 Asp residues, ends cyclized (CYFDDSSNVIC; cyclized; listed as Homo sapiens) |  | weak agonist; also recorded: potentiating the cell responsiveness to OP-1 |  | cannot completely displace | effectively competed | behaviour in the alkaline phosphatase assay (agonist/antagonist) (ROS cells; Example 2, alone or with 40 ng/ml soluble OP-1): weak OP-1 agonists; effect on responsiveness to OP-1 (ROS cells; Example 3, at higher peptide concentrations (above 0.6-60 μM)): inhibited the responsiveness to OP-1; potentiation of OP-1 induced cell responsiveness (ROS cells; Example 3, peptide 0.6-60 μM, FIG. 16): 20%; peptide concentrations at which OP-1 induced responsiveness is potentiated (ROS cells; Example 3, with OP-1): 0.6 to 60 µM; increase of alkaline phosphatase activity relative to soluble OP-1 alone (ROS cells; peptide about 60 μM with 40 ng/ml soluble OP-1, FIG. 9A): about 20%; effect on basal alkaline phosphatase level (ROS cells; peptide alone, about 60 μM, Example 2, FIG. 9A): double
F2-1: SEQ ID No. 16; covers the entire finger 2 region of OP-1, cyclized close to the knot region (CLNAISVLYFDDSSNVILKKYRNMVVRC; disulfide 1-28 (inferred); listed as Homo sapiens) | effectively inhibited | effectively inhibited | 8 |  |  | 
F2-2c: SEQ ID No. 18; control cyclized peptide, 9 residues of F2-2 in reverse order (CIVNSSDDFYC; disulfide 1-11 (inferred); listed as Homo sapiens) [reference compound] | no effect | no effect |  |  | inactive | 
B1 |  |  |  |  |  | percent bindability to excess receptor [2]: 30 to 37%; Ka [3]: 4.38e+09 M⁻¹; average OP-1 binding capacity (pmol/mg protein) [3]: 3.6
B2 |  |  |  |  |  | IC50 (peptide concentration giving 50% inhibition of cellular responsiveness to OP-1), ROS cell alkaline phosphatase [4]: 20 µM
